Source: ChEMBL document CHEMBL6120970, “Discovery and Functional Characterization of a Potent, Selective, and Metabolically Stable PROTAC of the Protein Kinases DYRK1A and DYRK1B” (J Med Chem, 2024)
Converted amounts (≈) assume the structure as drawn. The source made the active and inactive calls. The calls are words filed in the database; no cut-off is given here.

How the values were obtained:
[1] = target: T1, Protein cereblon/Dual specificity tyrosine-phosphorylation-regulated kinase 1A (Homo sapiens, UniProt Q13627+Q96SW2); experiment: PROTAC activity at CRBN/DYRK1A in HEK293 cells assessed as induction of degradation of DYRK1A at 100 nM pretreated with CB-5083 followed by compound addition and incubated for 8 hrs; type: cell-based
[2] = Metabolic stability in human liver microsomes assessed as half life; type: ADME, Microsome
[3] = target: T1, Protein cereblon/Dual specificity tyrosine-phosphorylation-regulated kinase 1A; experiment: PROTAC activity at CRBN/DYRK1A in HEK293 cells assessed as induction of degradation of DYRK1A at 1 to 10000 nM incubated for 24 hrs in presence of leucettine-41; type: cell-based; conditions: dose 1-10000 nM
[4] = target: T1, Protein cereblon/Dual specificity tyrosine-phosphorylation-regulated kinase 1A; experiment: PROTAC activity at CRBN/DYRK1A in human A549 cells assessed as induction of degradation of DYRK1A at 100 nM incubated for 8 hrs relative to control; type: cell-based
SH-SY5Y = experiment: Cytotoxicity against human SH-SY5Y cells assessed as reduction in cell viability at 100 nM measured upto 96 hrs in presence of cisplatin by real-time cell analysis; type: functional, cell-based
[5] = target: T1, Protein cereblon/Dual specificity tyrosine-phosphorylation-regulated kinase 1A; experiment: PROTAC activity at CRBN/DYRK1A in HEK293 cells assessed as induction of degradation of DYRK1A at 100 nM pretreated with bortezomib followed by compound addition and incubated for 8 hrs; type: cell-based
[6] = Permeability of the compound in human Caco-2 cells across apical to basolateral side; type: ADME, cell-based; conditions: read-out: permeability
[7] = target: T2, Protein cereblon/Dual specificity tyrosine-phosphorylation-regulated kinase 1B (Homo sapiens) (UniProt Q9Y463+Q96SW2); experiment: PROTAC activity at CRBN/DYRK1B in HEK293 cells assessed as induction of degradation of DYRK1B at 100 nM pretreated with CB-5083 followed by compound addition and incubated for 8 hrs; type: cell-based
[8] = target: T1, Protein cereblon/Dual specificity tyrosine-phosphorylation-regulated kinase 1A; experiment: PROTAC activity at CRBN/DYRK1A in HEK293 cells assessed as induction of degradation of DYRK1A at 100 nM pretreated with leucettine-41 followed by compound addition and incubated for 8 hrs; type: cell-based
[9] = target: T1, Protein cereblon/Dual specificity tyrosine-phosphorylation-regulated kinase 1A; experiment: PROTAC activity at CRBN/HibiT-tagged DYRK1A in Flp-In-T-REx-293 cells assessed as induction of degradation of DYRK1A by measuring maximum efficacy at 1 uM measured after 24 hrs by NanoBiT luciferase assay relative to control; type: cell-based
[10] = target: T2, Protein cereblon/Dual specificity tyrosine-phosphorylation-regulated kinase 1B (Homo sapiens); experiment: PROTAC activity at CRBN/DYRK1B in Flp-In-T-REx-293 cells overexpressing GFP-DYRK1B assessed as initial rate of degradation at 1 uM measured upto 6 hrs by fluorescence based phase contrast microscopy analysis; type: cell-based
[11] = target: T1, Protein cereblon/Dual specificity tyrosine-phosphorylation-regulated kinase 1A; experiment: PROTAC activity at CRBN/DYRK1A in Flp-In-T-REx-293 cells overexpressing GFP-DYRK1A assessed as initial rate of degradation at 1 uM measured upto 6 hrs by fluorescence based phase contrast microscopy analysis; type: cell-based
[12] = target: T2, Protein cereblon/Dual specificity tyrosine-phosphorylation-regulated kinase 1B (Homo sapiens); experiment: PROTAC activity at CRBN/DYRK1B in Flp-In-T-REx-293 cells overexpressing GFP-DYRK1B assessed as half life at 1 uM measured upto 6 hrs by fluorescence based phase contrast microscopy analysis; type: cell-based
[13] = Metabolic stability in mouse liver microsomes assessed as intrinsic clearance; type: ADME, Microsome; conditions: read-out: CLH
[14] = AUC infinity in mouse at 10 mg/kg, ip administered as single dose; type: ADME, organism-based; conditions: in vivo
[15] = target: T1, Protein cereblon/Dual specificity tyrosine-phosphorylation-regulated kinase 1A; experiment: PROTAC activity at CRBN/DYRK1A in HEK293 cells assessed as induction of degradation of DYRK1A at 100 nM pretreated with lenalidomide followed by compound addition and incubated for 8 hrs; type: cell-based
[16] = Metabolic stability in rat liver microsomes assessed as half life; type: ADME, Microsome
[17] = AUC infinity in mouse at 1 mg/kg, iv administered as single dose; type: ADME, organism-based; conditions: in vivo
[18] = target: T1, Protein cereblon/Dual specificity tyrosine-phosphorylation-regulated kinase 1A; experiment: PROTAC activity at CRBN/DYRK1A in HEK293 cells assessed as induction of degradation of DYRK1A at 100 nM measured for 48 hrs by Western blot analysis; type: cell-based
[19] = Half life in mouse at 10 mg/kg, ip administered as single dose; type: ADME, organism-based; conditions: in vivo
[20] = Volume of distribution at steady state in mouse at 1 mg/kg, iv administered as single dose; type: ADME, organism-based; conditions: in vivo, read-out: Vdss
[21] = MRT in mouse at 1 mg/kg, iv administered as single dose; type: ADME, organism-based; conditions: in vivo
[22] = Metabolic stability in mouse liver microsomes assessed as half life; type: ADME, Microsome
[23] = target: T2, Protein cereblon/Dual specificity tyrosine-phosphorylation-regulated kinase 1B (Homo sapiens); experiment: PROTAC activity at CRBN/DYRK1B in Flp-In-T-REx-293 cells overexpressing GFP-DYRK1B assessed as maximal reduction in GFP fluorescence at 1 uM measured upto 6 hrs by fluorescence based phase contrast microscopy analysis relative to control; type: cell-based
[24] = MRT in mouse at 10 mg/kg, ip administered as single dose; type: ADME, organism-based; conditions: in vivo
[25] = target: T2, Protein cereblon/Dual specificity tyrosine-phosphorylation-regulated kinase 1B (Homo sapiens); experiment: PROTAC activity at CRBN/HibiT-tagged DYRK1B in Flp-In-T-REx-293 cells assessed as induction of degradation of DYRK1B by measuring maximum efficacy at 1 uM measured after 24 hrs by NanoBiT luciferase assay relative to control; type: cell-based
[26] = target: T2, Protein cereblon/Dual specificity tyrosine-phosphorylation-regulated kinase 1B (Homo sapiens); experiment: PROTAC activity at CRBN/DYRK1B in SH-SY5Y cells assessed as induction of degradation of DYRK1B at 100 nM incubated for 24 hrs; type: cell-based
[27] = target: T1, Protein cereblon/Dual specificity tyrosine-phosphorylation-regulated kinase 1A; experiment: PROTAC activity at CRBN/DYRK1A in human A549 cells assessed as induction of degradation of DYRK1A at 100 nM incubated for 24 hrs; type: cell-based
[28] = AUC infinity in mouse at 10 mg/kg, po administered as single dose; type: ADME, organism-based; conditions: in vivo
[29] = target: T1, Protein cereblon/Dual specificity tyrosine-phosphorylation-regulated kinase 1A; experiment: PROTAC activity at CRBN/HibiT-tagged DYRK1A in HEK293 cells assessed as induction of degradation of DYRK1A at 1 uM measured after 24 hrs by Western blot analysis; type: cell-based
[30] = Solubility of the compound in FaSSIF buffer; type: physicochemical
[31] = target: T1, Protein cereblon/Dual specificity tyrosine-phosphorylation-regulated kinase 1A; experiment: PROTAC activity at CRBN/DYRK1A in Flp-In-T-REx-293 cells overexpressing GFP-DYRK1A assessed as maximal reduction of GFP fluorescence at 1 uM measured upto 6 hrs by fluorescence based phase contrast microscopy analysis relative to control; type: cell-based
[32] = Half life in mouse at 10 mg/kg, po administered as single dose; type: ADME, organism-based; conditions: in vivo
[33] = Clearance in mouse at 1 mg/kg, iv administered as single dose; type: ADME, organism-based; conditions: in vivo
[34] = target: T1, Protein cereblon/Dual specificity tyrosine-phosphorylation-regulated kinase 1A; experiment: Competitive binding affinity to CRBN/DYRK1A (unknown origin) assessed as dissociation constant; type: protein assay
[35] = target: T1, Protein cereblon/Dual specificity tyrosine-phosphorylation-regulated kinase 1A; experiment: PROTAC activity at CRBN/DYRK1A in human OVCAR-3 cells assessed as induction of degradation of DYRK1A at 100 nM incubated for 8 hrs; type: cell-based
[36] = target: T1, Protein cereblon/Dual specificity tyrosine-phosphorylation-regulated kinase 1A; experiment: PROTAC activity at CRBN/DYRK1A in SH-SY5Y cells assessed as induction of degradation of DYRK1A at 100 nM incubated for 24 hrs; type: cell-based
[37] = Metabolic stability in human liver microsomes assessed as intrinsic clearance; type: ADME, Microsome; conditions: read-out: CLH
[38] = Metabolic stability in rat liver microsomes assessed as intrinsic clearance; type: ADME, Microsome; conditions: read-out: CLH

Cc1nc2ccc(-c3ccnc(N)c3)nc2n1-c1ccc(N2CCN(CC#Cc3ccc(N4CCC(C(=O)N5CCC(n6cc(CNc7cccc8c7C(=O)N(C7CCC(=O)NC7=O)C8=O)cn6)CC5)CC4)nc3)CC2)c(F)c1 (centres undefined)
Activity [1]: inactive
half-life [2]: 2.28 h
Activity [3]: inactive
Activity [4]: 100%
Activity (SH-SY5Y): Active; Compound Showed Moderate Toxicity
Activity [5]: inactive
Papp A→B [6]: < 0.27 ×10⁻⁶ cm/s
Activity [7]: inactive
Activity [8]: inactive
Emax [9]: 84%
Activity [10]: 1.16 h⁻¹
Activity [11]: 0.74 h⁻¹
T1/2 [12]: 0.6 h
CLint scaled [13]: 3.1 mL/min/kg
AUC(0-inf) [14]: 27100 ng·h/mL
Activity [15]: inactive
half-life [16]: 1.64 h
AUC(0-inf) [17]: 2470 ng·h/mL
Activity [18]: Active
half-life [19]: 4.75 h
Vd [20]: 0.614 L/kg
MRT [21]: 1.4 h
half-life [22]: 7.38 h
Emax [23]: 86%
MRT [24]: 5.77 h
Emax [25]: 66%
Activity [26]: Active
Activity [27]: Active
AUC(0-inf) [28]: 64 ng·h/mL
Activity [29]: Active
solubility [30]: 0.16 µM (≈ 0.17 µg/mL)
Emax [31]: 98%
half-life [32]: 2.11 h
clearance [33]: 7.1 mL/min/kg
Kd [34]: 6.3 nM
Activity [35]: inactive
Activity [36]: Active
CLint scaled [37]: 10.1 mL/min/kg
CLint scaled [38]: 14 mL/min/kg
